According to EPA's ToxRefDB 2:

Legend:
rat [1] = conditions: Prenatal developmental toxicity study; wistar; Oral; Gavage/Intubation; dose end: 21 GD; group: developmental; systemic / in life observation / body weight / fetal weight + developmental / developmental landmark / anogenital distance (agd) / …
rat [2] = conditions: Subchronic oral toxicity in rodents, sprague dawley, Gavage/Intubation, dose end: 90 day, group: systemic
mouse [3] = conditions: Multigenerational reproductive toxicity study, cd1, Oral, Gavage/Intubation, dose end: 2 generation
rat [4] = conditions: Subchronic inhalation toxicity, other, Whole-Body, dose end: 13 week, group: systemic
rat [5] = conditions: Combined chronic toxicity/carcinogenicity, fischer, Oral, Gavage/Intubation, dose end: 104 week, group: systemic
rat [6] = conditions: Sub-acute repeat dose toxicity, other, Inhalation, Whole-Body, dose end: 4 week, group: systemic
rat [7] = conditions: Combined chronic toxicity/carcinogenicity; fischer; Oral; Gavage/Intubation; dose end: 104 week; group: systemic; systemic / pathology microscopic / stomach / hyperplasia + systemic / pathology microscopic / clitoral gland / hyperplasia + systemic / …
rat [8] = conditions: Subchronic inhalation toxicity, other, Whole-Body, dose end: 13 week, group: systemic; remark: listed apart in the source
mouse [9] = conditions: Combined chronic toxicity/carcinogenicity; b6c3f1; Oral; Gavage/Intubation; dose end: 104 week; group: systemic; systemic / pathology microscopic / stomach / hyperkeratosis + systemic / pathology microscopic / stomach / hyperplasia + systemic / …
rat [10] = conditions: Multigenerational reproductive toxicity study, other, Inhalation, Whole-Body, dose end: 1 generation
mouse [11] = conditions: Subchronic oral toxicity in rodents, b6c3f1, Gavage/Intubation, dose end: 17 week, group: systemic
rat [12] = conditions: Subchronic oral toxicity in rodents, fischer, Gavage/Intubation, dose end: 17 week, group: systemic
rat [13] = conditions: Subchronic oral toxicity in rodents, sprague dawley, Water, dose end: 90 day, group: systemic
rat [14] = conditions: Sub-acute repeat dose toxicity, sprague dawley, Oral, Gavage/Intubation, dose end: 10 day, group: systemic
mouse [15] = conditions: Combined chronic toxicity/carcinogenicity, b6c3f1, Oral, Gavage/Intubation, dose end: 104 week, group: systemic
mouse [16] = conditions: Subchronic oral toxicity in rodents, b6c3f1, Gavage/Intubation, dose end: 13 week, group: systemic
rat [17] = conditions: Subchronic oral toxicity in rodents, fischer, Gavage/Intubation, dose end: 13 week, group: systemic
mouse [18] = conditions: Sub-acute repeat dose toxicity, b6c3f1, Oral, Gavage/Intubation, dose end: 14 day, group: systemic
[19] = systemic / pathology microscopic / heart / inflammation + systemic / pathology microscopic / heart / necrosis
[20] = systemic / pathology microscopic / heart / inflammation + systemic / pathology microscopic / heart / necrosis + systemic / clinical …
[21] = group: offspring, systemic / in life observation / body weight / offspring (pup) weight + systemic / in life observation / water consumption / water …
[22] = group: offspring, systemic / organ weight / kidney / relative to body weight + systemic / organ weight / liver / relative to body weight
[23] = group: parental, systemic / in life observation / body weight / body weight + systemic / in life observation / water consumption / water consumption + …
[24] = group: reproductive, reproductive / reproductive performance / estrous cycle / length
[25] = group: reproductive, reproductive / reproductive performance / fertility / fertility + reproductive / reproductive performance / gestational length / gestational…
[26] = systemic / hematology / platelet / platelet + systemic / in life observation / clinical signs / lacrimation
[27] = systemic / in life observation / clinical signs / lacrimation
[28] = systemic / pathology microscopic / clitoral gland / adenoma + systemic / pathology microscopic / clitoral gland / adenoma/carcinoma combined…
[29] = systemic / pathology microscopic / stomach / squamous cell papilloma + systemic / pathology microscopic / pancreas / hyperplasia + systemic…
[30] = systemic / in life observation / body weight / body weight + systemic / in life observation / body weight / body weight gain + systemic / in…
[31] = systemic / in life observation / body weight / body weight gain + systemic / organ weight / liver / absolute + systemic / organ weight / …
[32] = systemic / hematology / leukocyte (wbc) count differential / leukocyte (wbc) + systemic / in life observation / body weight / body weight + …
[33] = systemic / pathology microscopic / lung / hyperplasia + systemic / pathology microscopic / spleen / hematopoietic cell proliferation + …
[34] = group: parental, systemic / in life observation / body weight / body weight + systemic / in life observation / body weight / body weight gain
[35] = group: reproductive, reproductive / reproductive performance / mating / mating
[36] = systemic / pathology microscopic / lung / regeneration + systemic / pathology microscopic / stomach / acanthosis + systemic / pathology …
[37] = systemic / clinical chemistry / [other] / [other] + systemic / hematology / erythrocyte (rbc) count differential / erythrocyte (rbc) + …
[38] = systemic / clinical chemistry / aminopyrine-n-demethylase / aminopyrine-n-demethylase + systemic / clinical chemistry / cholesterol / …
[39] = systemic / clinical chemistry / urea nitrogen / urea nitrogen + systemic / organ weight / kidney / relative to body weight
[40] = systemic / clinical chemistry / urea nitrogen / urea nitrogen + systemic / organ weight / kidney / relative to body weight + systemic / …
[41] = systemic / pathology microscopic / harderian gland / adenoma + systemic / pathology microscopic / liver / hepatocellular adenoma + systemic…
[42] = systemic / pathology microscopic / stomach / squamous cell carcinoma + systemic / pathology microscopic / stomach / squamous cell papilloma…
[43] = systemic / pathology microscopic / stomach / hyperplasia
[44] = systemic / pathology microscopic / stomach / hyperplasia + systemic / organ weight / stomach / absolute + systemic / organ weight / stomach…
[45] = systemic / organ weight / stomach / nos + systemic / pathology microscopic / stomach / hyperplasia + systemic / pathology microscopic / …

## CC(C)COC(=O)c1ccccc1C(=O)OCC(C)C [Diisobutyl phthalate]
Rat [1]
  LEL: 600 mg/kg/day
  LOAEL: > 600 mg/kg/day
  NEL: < 600 mg/kg/day
  NOAEL: ≥ 600 mg/kg/day

## ClCC(Cl)CCl [1,2,3-Trichloropropane]
Rat [2]; [19]
  LEL: 0.00147 mg/kg/day
  NEL: < 0.00147 mg/kg/day
Rat [2]; [20]
  LOAEL: > 0.059 mg/kg/day
  NOAEL: ≥ 0.059 mg/kg/day
Mouse [3]; [21]
  LOAEL: > 120 mg/kg/day
  NOAEL: ≥ 120 mg/kg/day
Mouse [3]; [22]
  LEL: 30 mg/kg/day
  NEL: < 30 mg/kg/day
Mouse [3]; [23]
  LEL: 120 mg/kg/day
  LOAEL: > 120 mg/kg/day
  NEL: 60 mg/kg/day
  NOAEL: ≥ 120 mg/kg/day
Mouse [3]; [24]
  LEL: 30 mg/kg/day
  NEL: < 30 mg/kg/day
Mouse [3]; [25]
  LOAEL: > 120 mg/kg/day
  NOAEL: ≥ 120 mg/kg/day
Rat [4]; [26]
  LOAEL: > 1.5 ppm
  NOAEL: ≥ 1.5 ppm
Rat [4]; [27]
  LEL: 0.5 ppm
  NEL: < 0.5 ppm
Rat [5]; [28]
  LOAEL: > 30 mg/kg/day
  NOAEL: ≥ 30 mg/kg/day
Rat [5]; [29]
  LEL: 3 mg/kg/day
  NEL: < 3 mg/kg/day
Rat [6]; [30]
  LOAEL: > 900 ppm
  NOAEL: ≥ 900 ppm
Rat [6]; [31]
  LEL: 100 ppm
  NEL: < 100 ppm
Rat [7]
  LEL: 3 mg/kg/day
  LOAEL: 3 mg/kg/day
  NEL: < 3 mg/kg/day
  NOAEL: < 3 mg/kg/day
Rat [8]; [32]
  LOAEL: > 50 ppm
  NOAEL: ≥ 50 ppm
Rat [8]; [33]
  LEL: 5 ppm
  NEL: < 5 ppm
Mouse [9]
  LEL: 6 mg/kg/day
  LOAEL: 6 mg/kg/day
  NEL: < 6 mg/kg/day
  NOAEL: < 6 mg/kg/day
Rat [10]; [34]
  LEL: 15 ppm
  LOAEL: > 15 ppm
  NEL: 5 ppm
  NOAEL: ≥ 15 ppm
Rat [10]; [35]
  LEL: 5 ppm
  LOAEL: > 15 ppm
  NEL: < 5 ppm
  NOAEL: ≥ 15 ppm
Mouse [11]; systemic / organ weight / liver / absolute
  LEL: 32 mg/kg/day
Mouse [11]; systemic / organ weight / liver / absolute + systemic / in life observation / body weight / body weight gain + systemic / in life …
  NEL: 16 mg/kg/day
Mouse [11]; [36]
  LOAEL: 63 mg/kg/day
  NOAEL: 32 mg/kg/day
Rat [12]; [37]
  LEL: 8 mg/kg/day
  NEL: < 8 mg/kg/day
Rat [12]; systemic / pathology microscopic / kidney / regeneration + systemic / clinical chemistry / [other] / [other] + systemic / clinical chemistry…
  NOAEL: 32 mg/kg/day
Rat [12]; systemic / pathology microscopic / kidney / regeneration + systemic / organ weight / kidney / absolute + systemic / in life observation / …
  LOAEL: 63 mg/kg/day
Rat [13]; [38]
  LOAEL: > 50 mg/kg/day
  NEL: 0.5 mg/kg/day
  NOAEL: ≥ 50 mg/kg/day
Rat [13]; systemic / in life observation / water consumption / water consumption + systemic / organ weight / kidney / relative to body weight + …
  LEL: 5 mg/kg/day
Rat [14]; [39]
  LEL: 0.00147 mg/kg/day
  NEL: < 0.00147 mg/kg/day
Rat [14]; [40]
  LOAEL: > 0.118 mg/kg/day
  NOAEL: ≥ 0.118 mg/kg/day
Mouse [15]; [41]
  LOAEL: > 60 mg/kg/day
  NOAEL: ≥ 60 mg/kg/day
Mouse [15]; [42]
  LEL: 6 mg/kg/day
  NEL: < 6 mg/kg/day

## CC(C)(C)OOC(=O)c1ccccc1 [tert-Butyl perbenzoate]
Mouse [16]; [43]
  LEL: 60 mg/kg/day
  LOAEL: 60 mg/kg/day
Mouse [16]; [44]
  NEL: 30 mg/kg/day
  NOAEL: 30 mg/kg/day
Rat [17]; [43]
  LEL: 30 mg/kg/day
  NEL: < 30 mg/kg/day
Rat [17]; systemic / pathology microscopic / stomach / hyperplasia + systemic / pathology microscopic / stomach / inflammation
  LOAEL: 250 mg/kg/day
Rat [17]; systemic / pathology microscopic / stomach / hyperplasia + systemic / pathology microscopic / stomach / inflammation + systemic / in life …
  NOAEL: 125 mg/kg/day
Mouse [18]; [45]
  LOAEL: > 1110 mg/kg/day
  NEL: 140 mg/kg/day
  NOAEL: ≥ 1110 mg/kg/day
Mouse [18]; systemic / pathology microscopic / stomach / hyperplasia + systemic / organ weight / stomach / nos
  LEL: 278 mg/kg/day
